Measurements: patent US10100011B2, “Pentadienoyl piperidine derivative and use thereof” (Industry-Academic Cooperation Foundation, Yonsei University, priority 2014, dated 2018)

Experiments:
C57BL/6J mice [1] = test: Liver weight, liver tissue lipid concentrations and hepatic function indicators in blood of mice fed high-fat diet; type: in vivo, mouse; details: about 0.05% compound in high-fat diet, 10 weeks
Protocol: (§1) An obesity induction diet used in this experiment was a high-fat diet (HFD: 40% fat calories, 17 g of lard+3% corn oil/100 g diet), and the compositions of diets including the LJ-2501, LJ-2488, LJ-2495, LJ-2496 compounds were identical to that of HFD, except that each of the compounds was included in an amount of about 0.05% (Table 2). As a control drug, an anti-obesity drug, sibutramine (Sibut), was added in an amount of about 0.01% to the high-fat diet and a normal diet group (Chow) was fed with commercial rodent chow.
(§2) 5-week old 40 male C57BL/6J mice (Orient Bio., Korea) were fed with hard feed and accommodated in a laboratory environment for one week. Subsequently, in accordance with a randomized block method, the mice were randomly grouped into a normal diet group, a high-fat diet control group, two experimental substance groups, and […] and raised for a total of 10 weeks (n=8/group). Diets were supplied with water between 10 am and 11 am every day. An intake amount was measured every day and the body weights of the mice were measured every week. To prevent temporal weight change due to feed intake, feedboxes were removed and, after two hours, the body weights were measured. The experimental animals were fasted for 12 hours or more and then anesthetized with diethyl ether, followed by collecting blood, liver, and visceral adipose tissues (epididymal fat, perirenal fat, mesenteric fat, and retroperitoneal fat). The collected samples were washed with 0.1 M phosphate buffered saline (pH 7.4) and then weighed. Blood samples collected from abdominal aortas were centrifuged at 1000×g for 15 minutes, thereby separating plasma.
Lipid components were extracted from liver tissue in accordance with the method by Folch, et al. (Folch J, Lees M, Sloane Stanley G H. A simple method for the isolation and purification of total lipids from animal tissues. J Biol Chem. 1957; 226:497-509). In particular, 1 mL of distilled water was added to 0.25 g of a liver tissue sample and then homogenized by means of a Polytron homogenizer (IKA-WERKE GmbH & Co., Ultra-Turrax, Staufen, Germany). To the homogenized solution, 5 mL of a solution including chloroform and methanol (mixed in a ratio of 2:1, v/v) was added, followed by uniformly mixing. Subsequently, centrifugation was carried out at 1000×g for 10 minutes and a lower solution was separated. To a formed supernatant, 2 mL of a mixture including chloroform and methanol (mixed in a ratio of 2:1, v/v) was added, followed by repeating the same procedure. As a result, lipid components were completely isolated from the liver samples. To an obtained lower solution, 3 mL of a mixture including chloroform, methanol, and 0.05% CaCl2 (mixed in a ratio of 3:48:47, v/v/v) was added, followed by mixing for one minute. Subsequently, centrifugation was carried out at 1000×g for 10 minutes. A final lower solution was collected and completely dried with a nitrogen gas. Subsequently, the dried lipid was dissolved in 1 mL of methanol and used for lipid component analysis. The concentrations of neutral fat and cholesterol in the lipid extracts extracted from the liver tissue were measured using the same commercial lipid analysis kit (Bio Clinical System) as that used in the plasma analysis.
Glutamate oxaloacetate transferase (GOT) and glutamate pyruvate transferase (GPT) activity in serum during fasting were measured by means of an automatic biochemical analyzer (Express Plus, Chiron Diagnostics Co., USA). A kit for analysis was purchased from Bayer (Tarrytown, N.Y., USA).

C57BL/6J mice [2] = test: Plasma lipid concentrations in mice fed high-fat diet; type: in vivo, mouse; details: about 0.05% compound in high-fat diet, 10 weeks
Protocol: as §1, §2
Using the aforementioned experimental animals raised for 10 weeks, the concentrations of a total of cholesterol, neutral fat, and glucose in plasma and lipid components in liver tissue were measured as follows. The concentrations of a total of cholesterol, neutral fat, and free fatty acid in plasma were respectively measured twice using a commercial measurement kit (Bio Clinical System).

SMILES: CSc1ccc(/C=C/C=C/C(=O)N2CCCCC2)cc1 [LJ-2501, (2E,4E)-5-(4-(methylthio)phenyl)-1-(piperine-1-yl)penta-2,4-diene-1-one]
- hepatic function indexes (ALT, AST) in the blood, reduction compared to HFD (C57BL/6J mice [1]): 60-65%
- liver tissue cholesterol concentration, reduction compared to HFD (C57BL/6J mice [1]): 53%
- liver tissue free fatty acid concentration, reduction compared to HFD (C57BL/6J mice [1]): 77%
- liver tissue neutral fat concentration, reduction compared to HFD (C57BL/6J mice [1]): 35%
- liver weight, reduction compared to high-fat diet control group (C57BL/6J mice [1]): 41%
- size of the liver compared to HFD group (photograph) (C57BL/6J mice [1]): relatively small
- plasma LDL+VLDL cholesterol concentration, reduction compared to HFD (C57BL/6J mice [2]): 27%
- plasma free fatty acid concentration, reduction compared to HFD (C57BL/6J mice [2]): 69%
- plasma neutral fat concentration, reduction compared to HFD (C57BL/6J mice [2]): 34%
- plasma total cholesterol concentration, reduction compared to HFD (C57BL/6J mice [2]): 35%
